The values that follow are results of earlier work, collected in patent publication EP3290412A1, “HIV-1 NUCLEOCAPSID INHIBITORS” (Università degli Studi di Siena, priority 2016, dated 2018).

Marks after values point to notes of the source that are not given here.

The subject of data set [1] is NIH Catalogue Number: 11845. The note with it: cited from earlier work.
Data set [2] deals with NIH Catalogue Number: 11842. The note with it: cited from earlier work.

For `Cc1nnc(C(=O)NC(C)(C)c2nc(C(=O)NCc3ccc(F)cc3)c(O)c(=O)n2C)o1` [Raltegravir™, Raltegravir, reference compound], the Level of resistance entry in data set [1] (INI resistant strain 11845) and in data set [2] (INI resistant strain 11842) was “High resistance” each time. The Fold change is recorded as >200 (1.5^b) in data set [1] (strain 11845, resistant virus IC50 to wild-type reference virus IC50 ratio, cut-off in brackets) and 96 (1.5^b) in data set [2] (strain 11842, resistant virus IC50 to wild-type reference virus IC50 ratio, cut-off in brackets).
